The values below come from article PMC9027920, “Development of New Thiophene-Containing Triaryl Pyrazoline Derivatives as PI3Kγ Inhibitors” (Molecules, 2022).

For data set [1], the target named is T1, PI3Kα (Homo sapiens, UniProt P42336).
T1 construct: purchased Perkin–Elmer
The data set is described as follows: competitive fluorescence polarization kinase activity assay, PI3Kα. The class given is biochemical. The note with it: fluorescence polarization kinase kit. From the text:
(§1) Initially, we directly tested the inhibition potency of the synthesized compounds on PI3K by using competitive fluorescence polarization kinase kits, as mentioned in previous investigations. […] According to the significance and research maturity of the isoforms as referenced, the PI3Kα and PI3Kγ isoforms were preliminarily included here.
(§2) The competitive fluorescence polarization kinase activity assay was used to test the inhibition potency on PI3K, as mentioned in previous investigations. In general, following the instruction of the Kit (Perkin–Elmer, Waltham, MA, USA), the 10 μL scale of PI3K activity reaction was conducted with the substrate diC8-PI(4,5)P2 in a solution containing 2.5 mM MgCl2, 5 mM HEPES, […] and 10 mM DTT at pH 7.0. Into the 10 μL reaction wells with 50 ng enzyme and […], different concentrations of the tested compounds were added, respectively. The mixture was incubated at room temperature for 3 h, and the reactions were then quenched. Afterwards, the phosphoinositide binding protein and the fluorescent dye-labeled phosphoinositide tracer were added in sequence. In the dark environment in 384-well black nonbinding plates (Corning, Corning, NY, USA), the further incubation lasted for 1 h. With appropriate filters, the polarization values of the corresponding dye were recorded to calculate the enzymatic activity of PI3K in this reacting procedure. This assay was universal for evaluating the activity of different PI3K isoforms.

Data set [2] has as its target T2, PI3Kγ (Homo sapiens, UniProt P48736).
T2 construct: purchased Perkin–Elmer
The data set is described as follows: competitive fluorescence polarization kinase activity assay, PI3Kγ. The class given is biochemical. Conditions: for IC50: fluorescence polarization kinase kit; for selectivity index: ratio of the IC50 values for PI3Kα and PI3Kγ.
Source text: as §1, §2
A general note: Fluorescence polarisation rises when a labelled molecule tumbles more slowly, as on binding a larger partner.

Data set [3] in a line: cytotoxicity, MTT, L02 cells. Type of data set: cell-based. Conditions: human, L02 cells (human normal hepatocyte line). The procedure: (§3) In this section, the anti-proliferation activity of the synthesized compounds 3a–3t was evaluated. Herein, HeLa (human epithelial cervical cancer cell line), HepG2 (human hepatoellular carcinoma cell line) and L02 (human normal hepatocyte line) cells were used. According to the affection on L02 cells, most of the tested compounds were low-toxic. […] Basically, many of the compounds in this series could inhibit the growth of HeLa and HepG2 cells effectively. The anti-proliferation inhibitory activity and the enzymatic inhibition potency indicated the consistent tendencies; the SAR of the observed anti-proliferation activity was also similar to that of the enzymatic inhibition, especially that of PI3Kγ inhibition; thus, the cellular inhibition might be caused by the effect on PI3K. […] Thus, HepG2 cells were selected to conduct further investigations at the protein level.
(§4) In this section, the cells included HeLa (human epithelial cervical cancer cell line), HepG2 (human hepatocellular cancer cell line) and L02 (human normal hepatocyte line) to evaluate the anti-proliferation activity of the synthesized compounds. The cells were cultured in Dulbecco’s modified eagle medium (DMEM, Hyclone) with the addition of 10% fetal bovine serum (FBS, BI), 2 mmol/L L-glutamine, 100 units/mL penicillin-streptomycin (Sigma-Aldrich, Saint Louis, MO, USA), […] (Hyclone, Logan, UT, USA). The environment was 5% CO2 contained atmosphere at 37 °C. The tests of anti-proliferative activity were conducted under a standard method with the typical dye 3-(4,5-dimethylthiazol-2-yl)-2,5-diphenyltetrazolium bromide (MTT) in triplicate. The LX300 Epson Diagnostic micro-plate reader (Nagano, Japan) was used to record the absorbance at 570 nm (OD570).

For data set [4], the system named is HeLa (human epithelial cervical cancer cell line) cells. Put plainly: anti-proliferation assay, MTT, HeLa cells. Type of data set: cell-based. The procedure: as §3, §4
Data set [5] concerns HepG2 (human hepatocellular cancer cell line) cells. The data set is described as follows: anti-proliferation assay, MTT, HepG2 cells. The class given is cell-based. The note with it: read-out: GI50 HepG2γ. The protocol: as §3, §4
The test system of data set [6] is PI3K-mediated Akt phosphorylation in HepG2 cells. Put plainly: Western blot of Akt and p-Akt in HepG2 cells. The class given is cell-based, human. The note with it: 24 h, 0, 0.25, 0.50, 1.00 μM, with increasing concentration. The protocol: For the evaluation of PI3Kγ activity, the downstream signal of PI3Kγ should be checked. Commonly, in the PI3K-Akt-mTOR pathway, the activation of PI3K mediated the phosphorylation of Akt and then triggered the following biological events. Herein, Western blot was conducted to visualize the expression levels of Akt and p-Akt (phosphorylated Akt) in HepG2 cells after incubation with various concentrations of the top hit 3s (Figure 2). GAPDH was used as the internal reference to guarantee cell status. […] This meant that compound 3s has the potential to cause dose-dependent blocking on the PI3K-mediated Akt phosphorylation.
According to the results of the anti-proliferation assay, HepG2 cells were chosen to be incubated with the compound 3s for 24 h. The cells were then trypsinized and collected. Afterwards, the extracting of the total proteins was conducted with a 1 × RIPA lysis buffer (1% NP-40, 50 mM Tris-HCl, 150 mM NaCl, 0.25% deoxycholic acid, 1 mM EDTA containing protease inhibitors PMSF, pH 7.4,) (Amresco, Solon, OH, USA). […]
Figure 2 (A) The expression levels of Akt, phosphorylated Akt (p-Akt) and GAPDH in HepG2 cells incubated with various concentrations of compound 3s (0, 0.25, 0.50, 1.00 μM); (B) Quantitation analysis of the p-Akt level. Data were expressed as Mean ± SD (n = 3). * p < 0.05, ** p < 0.01 and *** p < 0.005 vs. the control.
On the technique in general: Immunoblotting shows a protein as a band on a membrane.

Data set [7] relates to HCT-116 cells. Further details: method as in doi:10.1134/S1068162020030061. Conditions: cited from earlier work.
Data set [8] has as its system CACO-2 cells. Also noted: method as in doi:10.1134/S1068162020030061. Conditions: cited from earlier work.
Data set [9] deals with BHK cells. Also noted: method as in doi:10.1134/S1068162020030061. Conditions: cited from earlier work.

For orientation: IC50 means the concentration needed to halve the response being measured. The CC50 is the concentration at which the toxic effect on the cells reaches its halfway point. The low end stands for greater toxicity to the cells, the high end for lower toxicity to the cells. As a reminder, the GI50 is the concentration giving 50% growth inhibition. By melting point is commonly meant the temperature, or range, at which the solid turns liquid.

T2 sequence (P48736 whole entry, species assumed): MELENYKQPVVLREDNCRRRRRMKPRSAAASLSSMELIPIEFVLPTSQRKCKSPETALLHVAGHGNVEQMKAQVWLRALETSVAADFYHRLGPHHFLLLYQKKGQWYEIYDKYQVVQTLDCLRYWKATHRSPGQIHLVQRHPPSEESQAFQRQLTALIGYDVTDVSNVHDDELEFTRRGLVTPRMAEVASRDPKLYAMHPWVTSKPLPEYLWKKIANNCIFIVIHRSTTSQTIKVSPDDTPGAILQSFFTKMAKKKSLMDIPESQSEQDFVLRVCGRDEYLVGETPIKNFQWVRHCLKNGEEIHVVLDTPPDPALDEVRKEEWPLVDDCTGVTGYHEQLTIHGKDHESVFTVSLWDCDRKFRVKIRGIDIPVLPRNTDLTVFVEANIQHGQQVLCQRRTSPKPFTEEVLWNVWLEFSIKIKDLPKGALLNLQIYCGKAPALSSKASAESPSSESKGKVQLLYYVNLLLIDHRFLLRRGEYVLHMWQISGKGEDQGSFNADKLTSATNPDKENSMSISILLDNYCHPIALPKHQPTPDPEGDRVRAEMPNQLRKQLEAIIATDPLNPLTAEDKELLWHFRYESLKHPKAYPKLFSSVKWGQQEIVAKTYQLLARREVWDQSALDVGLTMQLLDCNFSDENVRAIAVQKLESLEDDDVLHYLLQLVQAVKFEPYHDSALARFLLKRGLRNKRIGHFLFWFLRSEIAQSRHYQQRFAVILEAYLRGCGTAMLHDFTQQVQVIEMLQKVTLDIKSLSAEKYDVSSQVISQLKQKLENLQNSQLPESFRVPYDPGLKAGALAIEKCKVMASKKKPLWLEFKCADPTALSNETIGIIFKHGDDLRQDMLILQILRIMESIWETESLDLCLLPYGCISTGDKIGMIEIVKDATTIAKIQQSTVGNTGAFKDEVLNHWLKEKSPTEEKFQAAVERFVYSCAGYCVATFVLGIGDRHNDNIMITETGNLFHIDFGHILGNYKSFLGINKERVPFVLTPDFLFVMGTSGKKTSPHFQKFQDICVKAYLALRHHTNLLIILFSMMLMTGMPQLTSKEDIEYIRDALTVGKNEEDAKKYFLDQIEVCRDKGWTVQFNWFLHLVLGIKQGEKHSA
T1 sequence (P42336 whole entry, species assumed): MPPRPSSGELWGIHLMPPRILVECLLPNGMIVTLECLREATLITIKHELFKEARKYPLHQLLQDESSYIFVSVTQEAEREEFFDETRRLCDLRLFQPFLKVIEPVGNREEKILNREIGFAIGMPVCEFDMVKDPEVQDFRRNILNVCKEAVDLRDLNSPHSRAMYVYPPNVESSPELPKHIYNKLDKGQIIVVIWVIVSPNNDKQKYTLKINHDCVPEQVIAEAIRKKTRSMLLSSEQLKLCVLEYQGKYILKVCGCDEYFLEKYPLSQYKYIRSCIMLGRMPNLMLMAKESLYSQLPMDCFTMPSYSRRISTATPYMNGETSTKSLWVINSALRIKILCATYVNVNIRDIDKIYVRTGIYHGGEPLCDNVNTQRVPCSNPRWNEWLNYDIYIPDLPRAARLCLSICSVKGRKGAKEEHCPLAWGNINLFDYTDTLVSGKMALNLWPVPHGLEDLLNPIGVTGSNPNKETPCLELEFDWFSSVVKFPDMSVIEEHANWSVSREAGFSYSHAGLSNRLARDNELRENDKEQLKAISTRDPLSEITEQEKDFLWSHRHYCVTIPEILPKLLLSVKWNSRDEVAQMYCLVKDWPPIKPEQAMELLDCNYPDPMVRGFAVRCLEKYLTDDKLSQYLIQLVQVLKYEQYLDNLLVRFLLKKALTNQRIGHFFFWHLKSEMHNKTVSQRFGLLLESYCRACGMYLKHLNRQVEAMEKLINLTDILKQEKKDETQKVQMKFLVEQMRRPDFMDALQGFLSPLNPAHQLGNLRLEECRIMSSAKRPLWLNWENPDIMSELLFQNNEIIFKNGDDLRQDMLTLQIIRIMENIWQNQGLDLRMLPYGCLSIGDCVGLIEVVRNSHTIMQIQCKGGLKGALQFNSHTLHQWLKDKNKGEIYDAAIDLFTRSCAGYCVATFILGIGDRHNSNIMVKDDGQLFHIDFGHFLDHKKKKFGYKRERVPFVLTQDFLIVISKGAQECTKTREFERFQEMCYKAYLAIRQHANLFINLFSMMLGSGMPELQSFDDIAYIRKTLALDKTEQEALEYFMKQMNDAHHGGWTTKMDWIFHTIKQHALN
T1 sequence (P27986 whole entry partner, species assumed): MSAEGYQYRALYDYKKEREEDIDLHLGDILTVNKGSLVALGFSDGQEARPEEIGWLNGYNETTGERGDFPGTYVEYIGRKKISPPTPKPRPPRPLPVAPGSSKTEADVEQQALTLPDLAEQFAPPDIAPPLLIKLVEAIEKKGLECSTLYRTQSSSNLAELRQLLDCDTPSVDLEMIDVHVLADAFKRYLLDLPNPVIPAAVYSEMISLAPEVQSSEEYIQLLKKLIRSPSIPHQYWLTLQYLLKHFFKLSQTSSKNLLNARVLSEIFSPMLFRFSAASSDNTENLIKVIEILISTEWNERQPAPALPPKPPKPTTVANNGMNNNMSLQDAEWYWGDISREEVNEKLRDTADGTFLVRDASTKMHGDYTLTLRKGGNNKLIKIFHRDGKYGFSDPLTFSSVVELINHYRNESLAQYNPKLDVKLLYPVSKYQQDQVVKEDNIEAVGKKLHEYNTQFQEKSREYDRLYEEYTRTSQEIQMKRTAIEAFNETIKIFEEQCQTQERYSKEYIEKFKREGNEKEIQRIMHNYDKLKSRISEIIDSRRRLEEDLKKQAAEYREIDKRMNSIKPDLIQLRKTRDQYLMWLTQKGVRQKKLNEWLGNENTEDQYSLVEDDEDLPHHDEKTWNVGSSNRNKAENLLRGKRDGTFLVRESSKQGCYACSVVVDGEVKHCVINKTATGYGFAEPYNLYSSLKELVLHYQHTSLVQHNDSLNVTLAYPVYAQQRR

The compound `COc1ccc2cc(C3=NN(C(=O)c4ccc(OC)c(OC)c4)C(c4cccs4)C3)ccc2c1` (stereo not shown) [3p, (3-(6-((λ1-Oxidanyl)-λ^5-methyl)naphthalen-2-yl)-5-(thiophen-2-yl)-4,5-dihydro-1H-pyrazol-1-yl)(3,4-dimethoxyphenyl)methanone] had a melting point of 74 to 76 °C. The IC50 in [1] came to 0.56 ± 0.045 µM. The same compound yielded an IC50 in [2] of 3.76 ± 0.19 µM. The same compound gave a CC50 in data set [3] of 67.1 ± 3.9 µM. The GI50 in [4] came out at 6.81 ± 0.24 µM. For the same compound, in data set [5], the GI50 turned out to be 6.31 ± 0.54 µM.

Take `COc1ccc(C(=O)N2N=C(c3ccc(OC)c(OC)c3)CC2c2cccs2)cc1OC` (stereo not shown) [3q, (3,4-Dimethoxyphenyl)(3-(3,4-dimethoxyphenyl)-5-(thiophen-2-yl)-4,5-dihydro-1H-pyrazol-1-yl)methanone]: the melting point was in the range of 127 to 128 °C. Further, the IC50 in data set [1] amounted to 5.24 ± 0.13 µM. Besides, in data set [2], the IC50 turned out to be 0.43 ± 0.036 µM and the selectivity index is on record as 12.2. The compound further had a CC50 in data set [3] of 41.3 ± 2.6 µM. This compound also came in with a concentration for 50% growth inhibition (GI50) in data set [4] of 4.72 ± 0.12 µM. Also, the GI50 in [5] worked out at 4.22 ± 0.13 µM.

Consider `COc1ccc(C(=O)N2N=C(c3ccc(C)c(C)c3)CC2c2cccs2)cc1OC` (stereo not shown) [3r, (3,4-Dimethoxyphenyl)(3-(3,4-dimethylphenyl)-5-(thiophen-2-yl)-4,5-dihydro-1H-pyrazol-1-yl)methanone], for which the melting point fell in the range of 104 to 106 °C. In [1], the IC50 came out at 4.13 ± 0.062 µM. Besides, in data set [2], the IC50 worked out at 1.37 ± 0.055 µM. Besides, the CC50 in [3] was 52.5 ± 3.2 µM. In addition, the GI50 in data set [4] worked out at 6.2 ± 0.22 µM. Also, the GI50 in [5] came to 5.55 ± 0.41 µM.

Take `COc1ccc(C(=O)N2N=C(c3ccc4c(c3)OCO4)CC2c2cccs2)cc1OC` (stereo not shown) [3s, (3-(Benzo[d][1,3]dioxol-5-yl)-5-(thiophen-2-yl)-4,5-dihydro-1H-pyrazol-1-yl)(3,4-dimethoxyphenyl)methanone]: the melting point lay in the range of 138 to 140 °C. Also, the IC50 in data set [1] came to 42.6 ± 2.9 µM. Further, in [2], the IC50 is 0.066 ± 0.005 µM and the selectivity index is listed as 645. In [3], this compound displayed a CC50 of 181 ± 9 µM. Further, halving of growth in data set [4] (GI50) required 13.7 ± 1.1 µM. Also, the concentration for 50% growth inhibition (GI50) in data set [5] came to 12.9 ± 1.3 µM. In [6], the Akt level result was “almost remained unchanged” and the p-Akt level result is given as “obvious decrease”.

`COc1ccc(C(=O)N2N=C(c3ccc(Br)cn3)CC2c2cccs2)cc1OC` (stereo not shown) [3t, (3-(5-Bromopyridin-2-yl)-5-(thiophen-2-yl)-4,5-dihydro-1H-pyrazol-1-yl)(3,4-dimethoxyphenyl)methanone] came in with a melting point of 77 to 79 °C. Moreover, the half-maximal inhibitory concentration (IC50) in data set [1] was more than 100 µM. Moreover, in [2], the IC50 amounted to 9.15 ± 0.14 µM. In data set [3], the CC50 is more than 300 µM. The GI50 in [4] is 124 ± 9.7 µM. Moreover, the GI50 in [5] was found to be 110 ± 8.1 µM.

`CCOC(=O)c1sc(N2N=C(c3cccs3)CC2c2ccccc2)nc1C` (stereo not shown) [ethyl-4-methyl-2-(5-phenyl-3-(thiophen-2-yl)-4,5-dihydropyrazol-1-yl)thiazole-5-carboxylate]: the anti-tumor activity result in data set [7] and in [8] was “potent anti-tumor activity” in each case. Also, in data set [9], the cytotoxicity entry is listed as “no cytotoxicity”.
